According to patent publication US11053219B2, “Substituted pyridines as TYK2 inhibitors” (FronThera U.S. Pharmaceuticals LLC, priority 2018, dated 2021):

How the values were obtained:
[1] = test system: IL12-induced p-STAT4 in human PBMC; assay: IL-12 induced pSTAT4 in human PBMC; assay type: cell-based; conditions: human PBMC, IL-12 10 ng/ml; read-out: p-STAT4 IC50
Description: Cells were seeded in a round bottom 96-well plate at the concentration of 200,000 cells/well. A 10-point dilution series of test compound (top dose 10 uM, 1:5 dilution) was added to the well using the liquid dispenser (Tecan D300e) and incubated for 1 hour at 37 C. Then human IL-12 recombinant protein (R&D Systems) was added to the well at the final concentration of 10 ng/ml and incubated for 15 minutes at 37 C. Cell lysates were prepared and analyzed by Phospho STAT4 (Tyr693) Kit (Meso Scale Discovery) following manufacturer's protocol.
For calculation of the inhibition rate, the relative pSTAT4 signal of each well=pSTAT4 signal of each well−the average pSTAT4 signal of baseline. The inhibition %=(the average pSTAT4 signal of IL-12 treatment wells−the relative of pSTAT4 signal in each compound containing well)/the average pSTAT4 signal of IL-12 treatment wells*100%

[2] = test system: INFα induced pSTAT3 in human PBMC; assay: INFα induced pSTAT3 in human PBMC; assay type: cell-based; conditions: human PBMC, INFα 5000 units/ml; read-out: p-STAT3 IC50
Description: (§1) Fresh Human PBMCs were resuspended in RPMI 1640 medium with 10% FBS. Cells were seeded in a round bottom 96-well plate at the concentration of 200,000 cells/well. A 10-point dilution series of test compound (top dose 10 uM, 1:5 dilution) was added to the well using the liquid dispenser (Tecan D300e) and incubated for 1 hour at 37 C. Then human INFα recombinant protein (R&D Systems) was added to the well at the final concentration of 5000 units/ml and incubated for 15 minutes at 37 C. Cell lysates were prepared and analyzed by Phospho STAT3 (Tyr705) cellular kit (Cisbio) or Phospho STAT5 (Tyr693) Kit (Meso Scale Discovery) following manufacturer's protocol.
(§2) For calculation of the inhibition rate, the relative pSTAT signal of each well=pSTAT signal of each well−the average pSTAT signal of baseline. The inhibition %=(the average pSTAT signal of INFα treatment wells−the relative of pSTAT signal in each compound containing well)/the average pSTAT signal of INFα treatment wells*100%
The curve was plotted as the inhibition % (y-axis) vs. compounds concentration (x-axis) and was fitted with log(inhibitor) vs. normalized response—Variable slope by GraphPad Prism7.0.

TYK2 (JH2 domain) = TYK2 (JH2 domain) (Homo sapiens (Human), UniProt P29597); assay: TYK2 JH2 domain binding assay (DiscoverX KINOMEscan); conditions: 11-point 3-fold dilution, duplicate
TYK2 (JH2 domain), sequence (P29597 589-875): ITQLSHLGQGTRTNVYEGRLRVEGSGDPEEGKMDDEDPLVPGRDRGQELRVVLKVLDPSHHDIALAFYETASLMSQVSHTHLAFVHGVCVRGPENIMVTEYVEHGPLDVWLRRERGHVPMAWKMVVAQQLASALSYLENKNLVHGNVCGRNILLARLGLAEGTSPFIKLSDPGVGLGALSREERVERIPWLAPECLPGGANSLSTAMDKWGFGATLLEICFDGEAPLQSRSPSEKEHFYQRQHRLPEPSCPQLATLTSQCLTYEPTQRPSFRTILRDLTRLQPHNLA
Description: (§6) The assay is performed by combining three components: DNA-tagged kinase; immobilized ligand; and a test compound. The ability of the test compound to compete with the immobilized ligand is measured via quantitative PCR of the DNA tag.
(§7) The liganded beads were blocked with excess biotin and washed with blocking buffer (SeaBlock (Pierce), 1% BSA, 0.05% Tween 20, 1 mM DTT) to remove unbound ligand and to reduce non-specific binding. […] Test compounds were prepared as 111× stocks in 100% DMSO. All test compounds were shipped to DiscoverX in DMSO with concentration of 10 mM. Kds were determined using an 11-point 3-fold compound dilution series with three DMSO control points. Each compound was tested in duplicate. […] The compounds were then diluted directly into the assays such that the final concentration of DMSO was 0.9%. All reactions performed in polypropylene 384-well plate. Each was a final volume of 0.02 ml. […] The kinase concentration in the eluates was measured by qPCR.
(§8) The amount of kinase measured by qPCR (Signal; y-axis) is plotted against the corresponding compound concentration in nM in log 10 scale (x-axis). Binding constants (Kds) were calculated with a standard dose-response curve using the Hill equation:
The Hill Slope was set to −1.
Curves were fitted using anon-linear least square fit with the Levenberg-Marquardt algorithm.

JAK1 (JH2 domain) = JAK1 (JH2 domain) (Homo sapiens (Human), UniProt P23458); assay: JAK1 JH2 domain binding assay (KINOMEscan); conditions: KINOMEscan; read-out: JAK1 (JH2 domain) binding Kd
JAK1 (JH2 domain), sequence (P23458 583-855): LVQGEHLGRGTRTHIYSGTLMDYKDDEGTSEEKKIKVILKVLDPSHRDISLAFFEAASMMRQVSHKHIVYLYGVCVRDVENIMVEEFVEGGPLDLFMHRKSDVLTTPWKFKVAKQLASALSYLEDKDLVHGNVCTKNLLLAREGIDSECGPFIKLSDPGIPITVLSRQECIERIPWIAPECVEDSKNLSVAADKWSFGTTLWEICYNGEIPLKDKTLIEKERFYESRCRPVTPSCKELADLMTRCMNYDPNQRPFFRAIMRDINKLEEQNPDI
Description: as §6, §7, §8
(§9) Similar to the method for TYK2 JH2 binding described above, JAK1 JH2 and JAK2 JH1 domain binding assay was performed using DiscoverX's KINOMEscan™, but with change of kinase domain.

[3] = test system: GM-CSF-induced pSTAT5 in human PBMC; assay: GM-CSF-induced pSTAT5 in human PBMC; assay type: cell-based; conditions: GM-CSF 10 ng/ml
Description: as §1, with “IL-12” for “INFα”, “10 ng/ml” for “5000 units/ml”, “STAT4” for “STAT3 (Tyr705) cellular kit (Cisbio) or Phospho STAT5”
as §2, with “pSTAT4” for “pSTAT”, “well=pSTAT4” for “well=pSTAT”, “IL-12” for “INFα”
(§3) The curve was plotted as the inhibition % (y-axis) vs. compounds concentration (x-axis) and was fitted with log(inhibitor) vs. normalized response—Variable slope by GraphPad Prism7.0. Control is BMS-986165:
(§4) Similar to the method for IL-12 induced pSTAT4 in human PBMC described above, these assays were performed to check if test compounds have cross-activity to JAK1. JAK2 and JAK3 pathways in human PBMC. The procedure is as described with change of stimuli to 10 ng/ml of GM-CSF or 20 ng/ml of IL-2.

[4] = test system: IL-2-induced pSTAT5 in human PBMC; assay: IL-2-induced pSTAT5 in human PBMC; assay type: cell-based; conditions: IL-2 20 ng/ml
Description: as §1, with “IL-12” for “INFα”, “10 ng/ml” for “5000 units/ml”, “STAT4” for “STAT3 (Tyr705) cellular kit (Cisbio) or Phospho STAT5”
as §2, with “pSTAT4” for “pSTAT”, “well=pSTAT4” for “well=pSTAT”, “IL-12” for “INFα”
as §3, §4

[5] = test system: INFα induced pSTAT5 in human PBMC; assay: INFα induced pSTAT5 in human PBMC; assay type: cell-based; conditions: human PBMC, INFα 5000 units/ml; read-out: p-STAT5 IC50
[6] = Pharmacokinetic study in Sprague Dawley rats; assay type: in vivo; conditions: rat, plasma
Description: (§5) The pharmacokinetics of test compounds were evaluated in male C57BL/6 mice, Sprague Dawley rats, Beagle dogs, and cynomolgus monkeys when administered via oral gavage and IV injection. The animals were fasted overnight before administration. Plasma samples were collected predose and at 0.5, 1, 3, 6, 9, 12, and 24 hours postdose. The samples were analyzed by LC/MS/MS and the concentration of test compound at each timepoint was determined by linear regression. Pharmacokinetic parameters were calculated from the plasma concentrations using Pheonix WinNonlin.

[7] = Pharmacokinetic study in Beagle dogs; assay type: in vivo; conditions: dog, plasma
Description: as §5

JAK2 (JH1 domain) = JAK2 (JH1 domain) (Homo sapiens (Human), UniProt O60674); assay: JAK2 JH1 domain binding assay (KINOMEscan)
JAK2 (JH1 domain), sequence (O60674 849-1124): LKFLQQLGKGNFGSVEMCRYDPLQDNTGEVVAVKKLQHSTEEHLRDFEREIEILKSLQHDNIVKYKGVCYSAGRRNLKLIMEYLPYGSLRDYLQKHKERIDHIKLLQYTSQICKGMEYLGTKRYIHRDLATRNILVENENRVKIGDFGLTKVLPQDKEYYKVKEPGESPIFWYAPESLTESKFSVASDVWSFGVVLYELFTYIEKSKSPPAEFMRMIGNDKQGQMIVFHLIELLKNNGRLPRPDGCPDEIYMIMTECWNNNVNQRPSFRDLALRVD
Description: as §6, §7, §8, §9

[8] = iv, I.V. (1 mg/kg), read-out: C0 or Cmax (C0)
[9] = iv, I.V. (1 mg/kg), read-out: Vdss

[2H]C([2H])([2H])NC(=O)c1nnc(N2CCN(C3COC3)C2=O)cc1Nc1cccc(-c2ncn(C)n2)c1OC [Example 79]
IC50 [1]: 100 to 1000 nM
IC50 [2]: 100 to 1000 nM
Kd (TYK2 (JH2 domain)): ≤ 1 nM

COc1c(Nc2cc(NC(=O)C3CC3)nc3cn(C)nc23)cccc1-c1ncn(C)n1 [Example 55]
IC50 [1]: 100 to 1000 nM
IC50 [2]: 100 to 1000 nM
Kd (TYK2 (JH2 domain)): 1 to 5 nM

[2H]C([2H])([2H])CC(=O)c1cnc(Nc2cccc(C#N)n2)cc1Nc1nccc(-c2ncn(C([2H])([2H])[2H])n2)c1OC [Example 199]
Kd (JAK1 (JH2 domain)): < 100 nM
IC50 [3]: 1000 to 10000 nM
IC50 [4]: 100 to 1000 nM
IC50 [5]: < 100 nM
AUC ([6]; Oral (5 mg/kg)): 650 ± 34 ng·h/mL
Tmax ([6]; Oral (5 mg/kg)): 1.33 ± 0.58 h
bioavailability ([6]; Oral (5 mg/kg)): 18.4 ± 1%
half-life ([6]; Oral (5 mg/kg)): 1.66 ± 0.37 h
Cmax ([6]; Oral (5 mg/kg), read-out: C0 or Cmax (Cmax)): 140 ± 32 ng/mL
AUC ([6]; iv, I.V. (1 mg/kg)): 705 ± 140 ng·h/mL
clearance ([6]; iv, I.V. (1 mg/kg)): 23.3 ± 4.9 mL/min/kg
half-life ([6]; iv, I.V. (1 mg/kg)): 1.74 ± 0.2 h
Cmax [6, 8]: 414 ± 56 ng/mL
Vd [6, 9]: 3.27 ± 0.87 L/kg
Kd (TYK2 (JH2 domain)): ≤ 1 nM
AUC ([7]; Oral (2 mg/kg)): 67.6 ± 25 ng·h/mL
Tmax ([7]; Oral (2 mg/kg)): 1.33 ± 0.6 h
bioavailability ([7]; Oral (2 mg/kg)): 10.7 ± 3.9%
half-life ([7]; Oral (2 mg/kg)): 1.36 ± 0.05 h
Cmax ([7]; Oral (2 mg/kg), read-out: C0 or Cmax (Cmax)): 23.4 ± 4 ng/mL
AUC ([7]; iv, I.V. (1 mg/kg)): 315 ± 188 ng·h/mL
clearance ([7]; iv, I.V. (1 mg/kg)): 63.2 ± 30 mL/min/kg
half-life ([7]; iv, I.V. (1 mg/kg)): 1.78 ± 0.59 h
Cmax [7, 8]: 334 ± 96 ng/mL
Vd [7, 9]: 5.62 ± 1.13 L/kg
Kd (JAK2 (JH1 domain)): > 10000 nM

CCC(=O)c1nnc(NC(=O)C2CC2)cc1Nc1cccc(-c2ncn(C)n2)c1OC [Example 25]
IC50 [1]: 100 to 1000 nM
IC50 [2]: 100 to 1000 nM
Kd (TYK2 (JH2 domain)): ≤ 1 nM

[2H]C([2H])([2H])NC(=O)c1nnc(N2CCN(CCOC)C2=O)cc1Nc1cccc(-c2ncn(C)n2)c1OC [Example 9, 6-[3-(2-methoxyethyl)-2-oxo-imidazolidin-1-yl]-4-[2-methoxy-3-(1-methyl-1,2,4-triazol-3-yl)anilino]-N-(trideuteriomethyl)pyridazine-3-carboxamide]
IC50 [1]: < 100 nM
IC50 [2]: 100 to 1000 nM
Kd (TYK2 (JH2 domain)): ≤ 1 nM

[2H]C([2H])([2H])NC(=O)c1nnc(N2CCN(C3CCOC3)C2=O)cc1Nc1cccc(-c2ncn(C)n2)c1OC (centres unmarked) [Example 80]
IC50 [1]: < 100 nM
IC50 [2]: < 100 nM
Kd (TYK2 (JH2 domain)): ≤ 1 nM

[2H]C([2H])([2H])NC(=O)c1nnc(N2CCOC2=O)cc1Nc1cccc(-c2ncn(C)n2)c1OC [Example 60]
IC50 [1]: > 10000 nM
IC50 [2]: > 10000 nM
Kd (TYK2 (JH2 domain)): 1 to 5 nM
